Measured values: US9232790B2, “Antimicrobial cleansing compositions” (KIMBERLY-CLARK WORLDWIDE, INC., priority 2011, dated 2016)

Experiments:
Type in all cases: cell-based
E. coli K12 (ATCC 29425) [1] = experiment: Impact of CAPB on cationic biocides, 60 second contact test against E. coli K12; conditions: 0.3% active, 60 seconds contact, 0.3 g/L bovine serum albumin; for LOG10 CFU/ml Reduction, w/ CAPB: with CAPB 3.5% w/w active; for LOG10 CFU/ml Reduction, w/o CAPB: without CAPB
Procedure: In this Example, the impact of cocamidopropyl betaine (CAPB) on the antimicrobial activity of cationic biocides against E. coli K12 (ATCC 29425) was analyzed.
Specifically, E. coli K12 was contacted for 60 seconds in a 0.3 g/L solution of bovine serum albumin mixed with a solution containing a cationic biocide, with or without CAPB (3.5% w/w active).

S. aureus (ATCC 6538) = experiment: Impact of CAPB on cationic biocides, 60 second contact test against S. aureus; conditions: 0.3% active, 60 seconds contact, 0.3 g/L bovine serum albumin; for LOG10 CFU/ml Reduction, w/ CAPB: with CAPB 3.5% w/w active; for LOG10 CFU/ml Reduction, w/o CAPB: without CAPB
Procedure: In this Example, the impact of cocamidopropyl betaine (CAPB) on the antimicrobial activity of cationic biocides against S. aureus (ATCC 6538) was analyzed.
Specifically, S. aureus was contacted for 60 seconds in a 0.3 g/L solution of bovine serum albumin mixed with a solution containing a cationic biocide, with or without CAPB (3.5% w/w active).

[2] = tested on: P. aeruginosa (ATCC 15442); experiment: Impact of CAPB on cationic biocides, 60 second contact test against P. aeruginosa; conditions: 0.3% active, 60 seconds contact, 0.3 g/L bovine serum albumin; for LOG10 CFU/ml Reduction, w/ CAPB: with CAPB 3.5% w/w active; for LOG10 CFU/ml Reduction, w/o CAPB: without CAPB
Procedure: In this Example, the impact of cocamidopropyl betaine (CAPB) on the antimicrobial activity of cationic biocides against P. aeruginosa (ATCC 15442) was analyzed.
Specifically, P. aeruginosa was contacted for 60 seconds in a 0.3 g/L solution of bovine serum albumin and mixed with a solution containing a cationic biocide, with or without CAPB (3.5% w/w active).

E. faecalis (ATCC 29212) = experiment: Impact of CAPB on cationic biocides, 60 second contact test against E. faecalis; conditions: 0.3% active, 60 seconds contact, 0.3 g/L bovine serum albumin; for LOG10 CFU/ml Reduction, w/ CAPB: with CAPB 3.5% w/w active; for LOG10 CFU/ml Reduction, w/o CAPB: without CAPB
Procedure: In this Example, the impact of cocamidopropyl betaine (CAPB) on the antimicrobial activity of cationic biocides against E. faecalis (ATCC 29212) was analyzed.
Specifically, E. faecalis was contacted for 60 seconds in a 0.3 g/L solution of bovine serum albumin mixed with a solution containing a cationic biocide, with or without CAPB (3.5% w/w active).

E. coli K12 (ATCC 29425) [3] = experiment: Impact of other betaine-based surfactants on benzalkonium chloride efficacy against E. coli K12; conditions: 60 seconds contact, 0.3 g/L bovine serum albumin; for LOG10 CFU/ml Reduction, 0.3% benzalkonium chloride + 3.5% surfactant: 0.3% benzalkonium chloride combined with 3.5% of the named betaine-based surfactant
Procedure: In this Example, the impact of other betaine-based surfactants on the antimicrobial activity of benzalkonium chloride against E. coli K12 (ATCC 29425) was analyzed.
Specifically, E. coli K12 was contacted for 60 seconds in a 0.3 g/L solution of bovine serum albumin mixed with a solution containing benzalkonium chloride, with or without a betaine-based surfactant (3.5% w/w active).

Molecule | LOG10 CFU/ml Reduction, w/ CAPB (E. coli K12 (ATCC 29425) [1]) | LOG10 CFU/ml Reduction, w/o CAPB (E. coli K12 (ATCC 29425) [1]) | LOG10 CFU/ml Reduction, w/ CAPB (S. aureus (ATCC 6538)) | LOG10 CFU/ml Reduction, w/o CAPB (S. aureus (ATCC 6538)) | LOG10 CFU/ml Reduction, w/ CAPB [2] | LOG10 CFU/ml Reduction, w/o CAPB [2] | LOG10 CFU/ml Reduction, w/ CAPB (E. faecalis (ATCC 29212)) | LOG10 CFU/ml Reduction, w/o CAPB (E. faecalis (ATCC 29212)) | LOG10 CFU/ml Reduction, 0.3% benzalkonium chloride + 3.5% surfactant (E. coli K12 (ATCC 29425) [3]) | LOG10 CFU/ml Reduction, 0.3% benzalkonium chloride (E. coli K12 (ATCC 29425) [3]; 0.3% benzalkonium chloride alone) | LOG10 CFU/ml Reduction, w/ CAPB (S. aureus (ATCC 6538); listed as didecyldimonium chloride)
N=C(NCCCCCCNC(=N)NC(=N)Nc1ccc(Cl)cc1)NC(=N)Nc1ccc(Cl)cc1.O=C(O)[C@H](O)[C@@H](O)[C@H](O)[C@H](O)CO.O=C(O)[C@H](O)[C@@H](O)[C@H](O)[C@H](O)CO [Chlorhexidine gluconate] | <3.1 LOG10 CFU/ml | 5.5 LOG10 CFU/ml | <2.4 LOG10 CFU/ml | 3.2 LOG10 CFU/ml | <3.3 LOG10 CFU/ml | >5.7 LOG10 CFU/ml | <3.3 LOG10 CFU/ml | <3.3 LOG10 CFU/ml | – | – | –
Coco-betaine | – | – | – | – | – | – | – | – | <3.1 LOG10 CFU/ml | – | –
Lauramidopropyl betaine | – | – | – | – | – | – | – | – | <3.0 LOG10 CFU/ml | – | –
CCCCCCCCCCCC[N+](C)(C)CC(=O)[O-] [Lauryl betaine] | – | – | – | – | – | – | – | – | <3.1 LOG10 CFU/ml | – | –
Benzalkonium chloride | <3.1 LOG10 CFU/ml | >5.5 LOG10 CFU/ml | <2.4 LOG10 CFU/ml | >4.9 LOG10 CFU/ml | <3.3 LOG10 CFU/ml | >5.7 LOG10 CFU/ml | <3.3 LOG10 CFU/ml | >5.7 LOG10 CFU/ml | – | >5.5 LOG10 CFU/ml | –
Meadowfoamamidopropyl betaine | – | – | – | – | – | – | – | – | <3.0 LOG10 CFU/ml | – | –
CCCCCCCCCC[N+](C)(C)CCCCCCCCCC.[Cl-] [Didecyldimonium chloride] | <3.1 LOG10 CFU/ml | 4.5 LOG10 CFU/ml | 4 LOG10 CFU/ml | >4.9 LOG10 CFU/ml | <3.3 LOG10 CFU/ml | >5.7 LOG10 CFU/ml | <3.3 LOG10 CFU/ml | >5.7 LOG10 CFU/ml | – | – | 4.0 LOG10 CFU/ml
CC(C)(C)CC(C)(C)c1ccc(OCCOCC[N+](C)(C)Cc2ccccc2)cc1 [Benzethonium chloride] | <3.1 LOG10 CFU/ml | >5.5 LOG10 CFU/ml | <2.4 LOG10 CFU/ml | >4.9 LOG10 CFU/ml | <3.3 LOG10 CFU/ml | >5.7 LOG10 CFU/ml | <3.3 LOG10 CFU/ml | 4.8 LOG10 CFU/ml | – | – | –
